One assay concerns male SD rat. Put plainly: Acetylcholine inductive salivation in rat (Example 5). The class given is in vivo. As to conditions: for Amount of saliva secreted: rat. As for the experimental part:
(§1) A male SD rat (CLEA Japan Inc.) with a body weight of about 400 g or a Hartley male guinea pig with a body weight of 400 to 500 g (Japan SLC) were used. After urethane anesthesia, sanitary cotton preliminarily weighed was inserted in the mouth of the animal and acetylcholine was intravenously administrated. After 5 minutes, the sanitary cotton was taken out to be weighed and the amount of saliva secreted was measured. The drug was intravenously administrated at 10 min before the administration of acetylcholine. The effect of oxybutynin was analyzed by paired t calibration and the concomitant use effect of the compound A was analyzed by William calibration.

The subject of the next assay is Hartley male guinea pig. In words: Acetylcholine inductive salivation in guinea pig (Example 5). It counts as in vivo. As for the experimental part: as §1
Assay [1] deals with T1, acetylcholine esterase of human erythrocyte origin (Homo sapiens, UniProt P22303).
T1 construct: acetylcholine esterase of human erythrocyte origin; purchased Sigma, St. Louis, Mo., USA; host or cells: human erythrocytes
In words: biochemical. As to conditions: for Selectivity b/a: BuChE IC50/AChE IC50 (Table 3). The class given is biochemical.

Assay [2] addresses T2, butyrylcholine esterase of human serum origin (Homo sapiens, UniProt P06276).
T2 construct: butyrylcholine esterase of human serum origin; purchased Biogenesis, Poole, UK; host or cells: human serum
In words: biochemical. As to conditions: read-out: BuChE IC50. The class given is biochemical.

In assay [3] the test system is Hartley male guinea pig, urethane anesthesia. In words: Pressure/flow study using guinea pig under continuous phenylephrine (Example 4). As to conditions: i.v., phenylephrine 3 μg/animal/min. It counts as in vivo. The procedure: A parameter (the maximum urine flow rate) at urination and a parameter (bladder compliance) at the collection of urine were also measured by a method similar as Example 3 shown below, with respect to the compounds B1 to B6 ([Table 8]).
A Hartley male guinea pig of 4 to 5 weeks old (Japan SLC) was used. After urethane anesthesia, the medial incision of the lower abdomen was carried out, and the bladder was exposed. Two injection needles (20G) with which a polyethylene tube (PE-100) was linked were inserted in the bladder, and one needle was used for injection of saline and another needle was used for measurement of the inner pressure of the bladder. A catheter was inserted in fernoral vein, and phenylephrine was continuously administrated at a flow rate of 3 μg/animal/min. Saline was continuously injected at a speed of 18 mL/h, the injection was stopped after intermittent urination was confirmed 2 times at minimum, and the saline in the bladder was removed by suction. Injection was started again, and the injection was stopped when the raise of the inner pressure of the bladder just before urination was confirmed. The amount of urine eliminated was measured by an electronic weighing machine and the inner pressure of the bladder was measured using a pressure transducer. The analogue data of the weight of urine and the inner pressure of the bladder were inputted in a multi-channel data analyzer (MP-100A-CE, Biopac systems), and analyzed by a proprietary software (Acqknowledge, Biopac systems). As the parameters, the maximum urine flow rate and bladder compliance were measured. Saline in the bladder was extracted after 10 min of the intravenous administration of the compound, and injection was started again to carry out measurement. The compounds were dissolved with DMSO so that administration volume was 0.5 mL/kg. The change rate of respective parameters before and after administration of the compounds was calculated and the calibration of significant difference was carried out by a solvent administration group and t calibration.

Assay [4] shares this test system. Put plainly: Urine flow dynamic parameters with oxybutynin and compound A (Example 6). The class given is in vivo. As to conditions: oxybutynin 1 mg/kg. As for the experimental part:
A Hartley male guinea pig with a body weight of about 500 g (Japan SLC Hamamatsu) was used. After urethane anesthesia (1.4 g/kg, i.p.), the medial incision of the lower abdomen was carried out, and the bladder was exposed. Two injection needles (20G) with which a polyethylene tube (PE-100, Becton Dickinson, Franklin Lakes, N.J., USA) was linked were inserted in the bladder, and one needle was used for injection of saline and another needle was used for measurement of the inner pressure of the bladder. Further, a cannula (PE-10, Becton Dickinson) for injection of phenylephrine was inserted in right common jugular vein. […] The amount of urine eliminated was measured by an electronic weighing machine (GX-400, A&D, Tokyo) and the inner pressure of the bladder was measured using a pressure transducer (AP641G, NIPPON KODEN Corporation, Tokyo). The analogue data of the weight of urine and the inner pressure of the bladder were inputted in a multi-channel data analyzer (MP-100A-CE, Biopac systems), and analyzed by a proprietary software (Acqknowledge 3.7.1, Biopac systems). The sampling interval of data was 0.1 sec and a low pass filter was applied to the data of discharge amount and urine flow rate at 0.5 Hz in order to remove noise. A delay time of 0.1 sec in weighing the urine was rectified, and the urine flow rate was determined by differentiating the value of discharge amount. The dynamic state parameter of the flow of urine below was measured. A bladder volume, the maximum urine flow rate, urination efficiency (=amount of urination/bladder volume). The effect of oxybutynin was analyzed by the paired t calibration and the concomitant use effect of the compound A was analyzed by Dunnett calibration.

[5] abbreviates: acetylcholine 1 mg/kg alone, 5 minutes.
Where [6] appears, read: mean value of twice tests, read-out: AchE IC50.

By IC50 is commonly meant the concentration that gives 50% inhibition.

Where a name gives a salt, the structure may show the parent alone. Read-outs that look alike come from different tables or passages of the source.

T1 sequence (P22303 32-617 isoform P22303-2 limits assumed): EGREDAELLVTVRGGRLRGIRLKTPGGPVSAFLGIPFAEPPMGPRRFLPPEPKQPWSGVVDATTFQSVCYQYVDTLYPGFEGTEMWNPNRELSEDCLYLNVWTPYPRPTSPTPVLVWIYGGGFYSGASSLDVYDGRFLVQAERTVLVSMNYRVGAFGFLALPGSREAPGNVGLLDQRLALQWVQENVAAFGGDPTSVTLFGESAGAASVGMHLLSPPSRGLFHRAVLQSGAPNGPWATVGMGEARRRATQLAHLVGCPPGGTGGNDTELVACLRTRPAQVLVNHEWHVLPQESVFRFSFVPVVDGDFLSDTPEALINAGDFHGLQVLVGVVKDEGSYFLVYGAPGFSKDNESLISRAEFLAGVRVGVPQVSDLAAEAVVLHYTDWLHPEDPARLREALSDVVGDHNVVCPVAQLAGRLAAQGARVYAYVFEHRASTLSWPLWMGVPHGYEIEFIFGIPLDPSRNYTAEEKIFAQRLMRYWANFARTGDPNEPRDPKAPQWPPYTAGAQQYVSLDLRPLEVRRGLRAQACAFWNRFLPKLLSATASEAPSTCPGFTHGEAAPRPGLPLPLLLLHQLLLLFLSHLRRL
T2 sequence (P06276 29-602): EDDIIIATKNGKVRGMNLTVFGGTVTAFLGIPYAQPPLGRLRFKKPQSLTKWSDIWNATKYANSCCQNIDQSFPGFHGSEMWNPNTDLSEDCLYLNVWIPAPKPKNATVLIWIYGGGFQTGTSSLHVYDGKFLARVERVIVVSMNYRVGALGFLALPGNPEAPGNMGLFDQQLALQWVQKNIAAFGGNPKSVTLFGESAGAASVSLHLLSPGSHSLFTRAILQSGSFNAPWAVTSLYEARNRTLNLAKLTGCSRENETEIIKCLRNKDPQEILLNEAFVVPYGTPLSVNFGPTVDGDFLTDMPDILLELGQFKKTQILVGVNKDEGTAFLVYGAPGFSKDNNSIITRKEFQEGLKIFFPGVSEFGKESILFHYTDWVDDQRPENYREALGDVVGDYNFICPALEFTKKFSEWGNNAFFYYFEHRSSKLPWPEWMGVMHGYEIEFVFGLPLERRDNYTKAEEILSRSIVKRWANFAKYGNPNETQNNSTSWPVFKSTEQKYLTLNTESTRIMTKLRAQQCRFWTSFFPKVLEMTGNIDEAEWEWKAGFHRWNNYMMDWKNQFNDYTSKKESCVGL

Consider `CC(=O)OCC[N+](C)(C)C` [Acetylcholine], for which the “Amount of saliva secreted” value is 0.27 ± 0.04 g in the assay on male SD rat (setting [5]) and 0.23 ± 0.03 g in the assay on Hartley male guinea pig (setting [5]).
In assay [1], `CCNC(=O)N1CCc2cc(C(=O)CCCCNCCc3ccccc3OC)ccc21.Cl` [Compound B4, N-ethyl-5-[5-[[2-(2-methoxyphenyl)ethyl]amino]pentanoyl]-1-indolincarboxamide hydrochloride] had a half-inhibitory concentration (IC50) of 118 nM and a Selectivity b/a of more than 85. The IC50 in assay [2] was more than 10000 nM. For the same molecule, in assay [3] (0.3 mg/kg), the “Bladder compliance, proportion for value before administration” value (“Bladder compliance, proportion” for short) is on record as 104.2 ± 8.1 and the “Maximum urine flow rate, proportion for value before administration” value came out at 165.4 ± 14.9.
Turning to `COc1ccccc1CCNCCCCC(=O)c1ccc2c(c1)n(C)c(=O)n2C` [Compound B5, 5-[5-[[2-(2-methoxyphenyl)ethyl]amino]pentanoyl]-1,3-dimethyl-1,3-dihydro-2H-benzoimidazol-2-one) hydrochloride], in assay [1], the Selectivity b/a is given as more than 150. In assay [1] (setting [6]), the IC50 was 65 nM. Moreover, the 50% inhibitory concentration (IC50) in assay [2] (mean value of twice tests) was more than 10000 nM. In addition, in assay [3] (0.03 mg/kg), the “Bladder compliance, proportion” value worked out at 95.0 ± 4.3 and the “Maximum urine flow rate, proportion for value before administration” value was 135.5 ± 19.1.
The molecule `Cn1c(=O)n(C)c2cc(C(=O)CCCCNCCc3ccccc3Cl)ccc21` [Compound B6, 5-[5-[[2-(2-chlorophenyl)ethyl]amino]pentanoyl]-1,3-dimethyl-1,3-dihydro-2H-benzoimidazol-2-one) hydrochloride] yielded a Selectivity b/a in assay [1] of more than 140. Moreover, the IC50 in assay [1] (setting [6]) came to 71 nM. Moreover, the IC50 in assay [2] (mean value of twice tests) was more than 10000 nM. Also, in assay [3] (0.1 mg/kg), the “Bladder compliance, proportion” value is 98.6 ± 6.9 and the “Maximum urine flow rate, proportion for value before administration” value came to 147.1 ± 26.2.
Take `CCN(CC)CC#CCOC(=O)C(O)(c1ccccc1)C1CCCCC1` (stereo not drawn) [Oxybutynin]: in the assay with male SD rat (rat and guinea pig (Tables 9 and 10)), the “action on acetylcholine-induced secretion of saliva” value is recorded as “significantly suppressed”. The “Amount of saliva secreted” value in the assay on male SD rat (oxybutynin 0.1 mg/kg + acetylcholine 1 mg/kg) turned out to be 0.17 ± 0.02 g. In addition, the “Amount of saliva secreted” value in the assay on Hartley male guinea pig (oxybutynin 1 mg/kg + acetylcholine 1 mg/kg) was determined as 0.11 ± 0.02 g. Further, in assay [4] (iv alone), the “Bladder volume, proportion for value before administration (%)” value came out at 28.87 ± 7.01 %; the “Maximum urine flow rate, proportion for value before administration (%)” value is −44.42 ± 9.44 %; the “Urination efficiency, proportion for value before administration (%)” value is recorded as −66.14 ± 5.91 %. In addition, the “action on bladder volume, maximum urine flow rate and urination efficiency” value in assay [4] (compound A 0.003, 0.01 mg/kg with oxybutynin) is “significant increase of bladder volume and the lowering of the maximum urine flow rate and urination efficiency were confirmed”.

(Values after patent publication US20070021391A1, “Preventive/remedy for urinary disturbance” (priority 2003, published 2007).)
